# Test results from patent US20110245095A1, “FAST ASSIGNMENT OF ADEQUATE CHEMOTHERAPY WITH LATINUM BASED DRUGS FOR CANCER PATIENTS BASED ON THE IDENTIFICATION OF CONSTITUTIONAL BRCAL MUTATIONS” (priority 2008, published 2011).
# Experiments:
# Assay type in all cases: in vivo, human
# [1] = test system: invasive breast cancer, pathogenic BRCA1 mutation carriers; assay: Neoadjuvant cisplatin therapy in breast cancer patients carrying a constitutional BRCA1 mutation (Example 1)
# Protocol: Eight patients were treated in Szczecin (Poland) and two were treated in Bielsko-Biala (Poland). In these centers, genetic testing is offered to all women with incident breast cancer.
# For the purpose of this study, genetic testing was expedited; in most cases the test result was available within five days of diagnosis. Written informed consent was obtained from each patient. The protocol was approved by the Research Ethics Review Board of the Pomeranian Medical Academy.
# Patients with a previous diagnosis of breast cancer, or other cancer, were excluded (three patients). Patients who received prior chemotherapy were excluded (three patients). Patients with metastatic disease (stage 1V) at presentation were excluded (one patient). One patient presented with primary breast cancer after a previous prophylactic bilateral mastectomy and was excluded.
# Patients were evaluated for renal function, liver function, and hematology prior to therapy.
# Prior to platinum chemotherapy, the clinical and histological features of the breast cancers were assessed. Tumor size was evaluated by clinical examination and by ultrasound, in some cases supplemented by mammogram. Histology was evaluated in nine cases by core biopsy and in one case by fine needle aspiration. For the nine cases who underwent core biopsy, grade, ER, PR, and ERBB2 status were evaluated by immuno-histochemistry. […] Grade was evaluated in the core biopsy specimen using the Bloom-Richardson classification system,
# Each cycle was 21 days. Granulocyte colony-stimulating factor (G-CSF) was not given to any patient. Dexamethasone (8 mg) was administered once daily for three days after chemotherapy, Ondansetron (Zophran™; GlaxoWellcome) was used for anti-nausea prophylaxis. Toxicity (nausea, vomiting, neutropenia) was assessed using the National Cancer Institute Common Toxicity Criteria after each cycle.
# Surgery was followed by post-operative chemotherapy (four cycles of Adriamycin and Cyclophosphamide). Two patients received radiotherapy.
# Clinical response was considered complete if there was no evidence of the primary breast tumor according to the World Health Organization (WHO) criteria (total disappearance of the tumor in breast and lymph nodes). Clinical response was considered ‘partial’ if there was a reduction of ≧50% in the product of the two largest perpendicular diameters of the tumor. […] The primary endpoint of this study was pathologic complete response. Pathologic response was considered complete if there was no evidence of invasive breast tumor and the lymph nodes were negative. Pathology specimens were reviewed by two pathologists. If there was evidence of breast carcinoma in situ, but no evidence of invasive disease, this was still considered to be a pathologic complete response.
# [2] = test system: disseminated ovarian cancer, BRCA1 mutation carriers; assay: Cisplatin chemotherapy of BRCA1 mutation carriers with disseminated ovarian cancer (Example 2, retrospective); conditions: 4 patients
# Excerpt: The patients selected for this study were retrospectively screened from the database of the oncology department at the Pomeranian Academy of Medicine, Szczecin (Poland). […] All cases were documented for the presence of a BRCA1 constitutional mutation among the dominating founder mutations in Poland (C610, 4153delA and 5382insC) determined by the same techniques described in Example 1. The tumor size had to be measurable per RECIST: X-Ray or physical examination ≧20 mm, and/or spiral CT scan≧10 mm, and/or conventional CT scan≧20 mm. Only individuals were chosen with a life expectancy a priori of at least 3 months, to exclude a technical blur due to extreme disease progression in terminal cancer cases. The maximal ECOG performance status admitted was less than or equal to 2. […]
# [3] = test system: disseminated breast and ovarian cancer, BRCA1 mutation carriers; assay: Cisplatin chemotherapy, disseminated breast and ovarian cancer analysed together (Example 2)
# Excerpt: The patients selected for this study were retrospectively screened from the database of the oncology department at the Pomeranian Academy of Medicine, Szczecin (Poland). […] All cases were documented for the presence of a BRCA1 constitutional mutation among the dominating founder mutations in Poland (C610, 4153delA and 5382insC) determined by the same techniques described in Example 1. The tumor size had to be measurable per RECIST: X-Ray or physical examination ≧20 mm, and/or spiral CT scan≧10 mm, and/or conventional CT scan≧20 mm. Only individuals were chosen with a life expectancy a priori of at least 3 months, to exclude a technical blur due to extreme disease progression in terminal cancer cases. The maximal ECOG performance status admitted was less than or equal to 2. The definition of minimum adequacy of organ function required prior to study entry were as follows: Absolute neutrophil count (ANC)>1,500/mcl, Platelets>100,000/mcl, Haemoglobin >8 g/dl, Total Bilirubin <1.5×ULN, AST (SGOT)/ALT (SGPT)<2.5×ULN and Creatinine within the normal institutional limits. All patients signed their willingness and ability to comply with scheduled visits, treatment plans, laboratory tests, and other study procedures. A total of 15 patients matched the selection criteria with ages at diagnosis ranging from 32 to 70 years and mean age at diagnosis of 48 years.
# Ovarian cancer patients were selected following the same selection criteria. Four individuals matched the criteria with ages at diagnosis ranging from 42 to 45 years and mean age at diagnosis of 43.5 years.
# The response assessment was based on a complete tumor measurement form (the form is carried forward continuously from cycle to cycle). Possible responses were complete response, partial response, stable disease and progressive disease, according to international oncology standards.
# [4] = test system: cancer of the colon, BRCA1 mutation carriers; assay: Cisplatin chemotherapy of BRCA1 mutation carriers with colon cancer (Example 3, retrospective); conditions: 1 patient
# Excerpt: (§1) The database of the oncology department at the Pomeranian Academy of Medicine, Szczecin (Poland), was retrospectively screened for patients affected by cancer types different than the breast or ovary (histologically or cytologically proven) since those cancer types had already been analyzed in Examples 1 and 2. Those patients had to be carriers of at least one constitutional mutation of the gene BRCA1, among the dominating founder mutations in Poland (CMG, 4153delA and 5382insC). The presence of a mutation was determined by the same techniques described in Example 1.
# (§2) The group that qualified matching all criteria consisted of five patients affected by cancer of the colon (1 subject), the pancreas (1 subject), the gallbladder (1 subject) and the lung (2 subjects). In 60% of the cases (both lung cancer patients and the colon cancer patient) a complete remission was reported after the application of the chemotherapy. […] In none of the cases, there was a lack of response towards cisplatin.
# [5] = test system: cancer of the lung, BRCA1 mutation carriers; assay: Cisplatin chemotherapy of BRCA1 mutation carriers with lung cancer (Example 3, retrospective); conditions: 2 patients
# Excerpt: as §1, §2
# [6] = test system: cancer of the pancreas, BRCA1 mutation carriers; assay: Cisplatin chemotherapy of BRCA1 mutation carriers with pancreatic cancer (Example 3, retrospective); conditions: 1 patient
# Excerpt: as §1, §2
# [7] = test system: cancer of the gallbladder, BRCA1 mutation carriers; assay: Cisplatin chemotherapy of BRCA1 mutation carriers with gallbladder cancer (Example 3, retrospective); conditions: 1 patient
# Excerpt: as §1, §2
# [8] = test system: cancer of colon, lung, pancreas, gallbladder, BRCA1 mutation carriers; assay: Cisplatin chemotherapy of BRCA1 mutation carriers with cancer at sites other than breast and ovaries, total (Example 3); conditions: 5 patients
# Excerpt: as §1, §2
# [9] = N = 10, after mastectomy and lymph node dissection
# [10] = neoadjuvant cisplatin 75 mg/m^2 every three weeks, N = 10
smiles,measurement,setting,value
"N.N.[Cl][Pt][Cl] [cisplatin, cis-diamminedichloridoplatinum(II)]","Clinical Response: No Change, %",[1]; N = 10,0%
same,"Clinical Response: No Change, No.",[1]; N = 10,0
same,"Clinical Response: Partial Response, %",[1]; N = 10,10%
same,"Clinical Response: Partial Response, No.",[1]; N = 10,1
same,"Clinical Response: Progressive Disease, %",[1]; N = 10,0%
same,"Clinical Response: Progressive Disease, No.",[1]; N = 10,0
same,"Number of Lymph Nodes Positive: 0, %",[1]; N = 10,90%
same,"Number of Lymph Nodes Positive: 0, No.",[1]; N = 10,9
same,"Number of Lymph Nodes Positive: 1-3, %",[1]; N = 10,10%
same,"Number of Lymph Nodes Positive: 1-3, No.",[1]; N = 10,1
same,"Number of Lymph Nodes Positive: 4-9, %",[1]; N = 10,0%
same,"Number of Lymph Nodes Positive: 4-9, No.",[1]; N = 10,0
same,"Number of Lymph Nodes Positive: >9, %",[1]; N = 10,0%
same,"Number of Lymph Nodes Positive: >9, No.",[1]; N = 10,0
same,"Pathologic Response: No Response, %",[1]; N = 10,0%
same,"Pathologic Response: No Response, No.",[1]; N = 10,0
same,"Pathologic Response: Partial Reseponse, %",[1]; N = 10,10%
same,"Pathologic Response: Partial Reseponse, No.",[1]; N = 10,1
same,"Residual Disease in Breast: 1-3 cm, %",[1]; N = 10,0%
same,"Residual Disease in Breast: 1-3 cm, No.",[1]; N = 10,0
same,"Residual Disease in Breast: 4-9 cm, %",[1]; N = 10,0%
same,"Residual Disease in Breast: 4-9 cm, No.",[1]; N = 10,0
same,"Residual Disease in Breast: <1 cm, %",[1]; N = 10,0%
same,"Residual Disease in Breast: <1 cm, No.",[1]; N = 10,0
same,"Residual Disease in Breast: >9 cm, %",[1]; N = 10,0%
same,"Residual Disease in Breast: >9 cm, No.",[1]; N = 10,0
same,"Residual Disease in Breast: none, %",[1]; N = 10,100%
same,"Residual Disease in Breast: none, No.",[1]; N = 10,10
same,grade 3 or 4 anemia,[1]; N = 10,No grade 3 or 4 anemia was observed
same,patients with febrile neutropenia,[1]; N = 10,No patient
same,"Pathologic Response: Complete Pathologic Response, %",[1]; [9],90%
same,"Pathologic Response: Complete Pathologic Response, No.",[1]; [9],9
same,patients who stopped due to side effects (nausea and vomiting),"[1]; N = 10, stopped after two cycles",One patient
same,"complete pathologic response, patients who completed treatment","[1]; four cycles of cisplatin, seven patients",all seven
same,"Clinical Response: Complete Response, %",[1]; [10],90%
same,"Clinical Response: Complete Response, No.",[1]; [10],9
same,"pathologic complete response, patients who received two cycles","[1]; two cycles, three patients",two
same,"No response, number of patients",[2],0
same,"Response: PR (partial response), number of patients",[2],0
same,"No response, % of patients",[3]; 19 patients,21%
same,"No response, number of patients",[3]; 19 patients,4
same,"Response: CR, % of patients",[3]; 19 patients,53%
same,"Response: CR, number of patients",[3]; 19 patients,10
same,"Response: PR, % of patients",[3]; 19 patients,16%
same,"Response: PR, number of patients",[3]; 19 patients,3
same,"Response: SD, % of patients",[3]; 19 patients,10%
same,"Response: SD, number of patients",[3]; 19 patients,2
same,patients responsive to the therapy,"[3]; 19 patients, CR + PR + SD",79%
same,"adverse effects: anemia, cases",[3]; Example 2 patients,1 case
same,"adverse effects: nausea, cases",[3]; Example 2 patients,2 cases
same,"adverse effects: neutropenia, cases",[3]; Example 2 patients,6 cases
same,"No response, number of patients",[4],0
same,"Response: CR, number of patients",[4],1
same,"No response, number of patients",[5],0
same,"Response: CR, number of patients",[5],2
same,"No response, number of patients",[6],0
same,"Response: SD, number of patients",[6],1
same,"No response, number of patients",[7],0
same,"Response: PR, number of patients",[7],1
same,"Response: CR, % of patients",[8],60%
same,"Response: CR, number of patients",[8],3
same,"Response: PR, % of patients",[8],20%
same,"Response: PR, number of patients",[8],1
same,"Response: SD, % of patients",[8],20%
same,"Response: SD, number of patients",[8],1
same,patients with at least a partial remission,[8],80%
